One may read the IC50 as the midpoint of a concentration-inhibition curve. The low end stands for higher potency, the high end for lower potency.

The target of this assay is PARP7 (Homo sapiens (Human), UniProt Q7Z3E1). Kind of assay: Enzymatic assay for inhibition of PARP7: TR-FRET displacement of biotinylated Probe A from the TIPARP active site. The format is binding. The settings on record: Table A-1. Summed up: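 Percent inhibition derives from the ratio of 665 to 615 nm emission, which reports how much Probe A remains bound to TIPARP. Plates sat 30 min at 25° C before the time-resolved read (320 nm excitation).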
In general terms: TR-FRET usually uses a lanthanide donor and a delayed reading to cut background.

Sequence of PARP7 (Q7Z3E1 whole entry): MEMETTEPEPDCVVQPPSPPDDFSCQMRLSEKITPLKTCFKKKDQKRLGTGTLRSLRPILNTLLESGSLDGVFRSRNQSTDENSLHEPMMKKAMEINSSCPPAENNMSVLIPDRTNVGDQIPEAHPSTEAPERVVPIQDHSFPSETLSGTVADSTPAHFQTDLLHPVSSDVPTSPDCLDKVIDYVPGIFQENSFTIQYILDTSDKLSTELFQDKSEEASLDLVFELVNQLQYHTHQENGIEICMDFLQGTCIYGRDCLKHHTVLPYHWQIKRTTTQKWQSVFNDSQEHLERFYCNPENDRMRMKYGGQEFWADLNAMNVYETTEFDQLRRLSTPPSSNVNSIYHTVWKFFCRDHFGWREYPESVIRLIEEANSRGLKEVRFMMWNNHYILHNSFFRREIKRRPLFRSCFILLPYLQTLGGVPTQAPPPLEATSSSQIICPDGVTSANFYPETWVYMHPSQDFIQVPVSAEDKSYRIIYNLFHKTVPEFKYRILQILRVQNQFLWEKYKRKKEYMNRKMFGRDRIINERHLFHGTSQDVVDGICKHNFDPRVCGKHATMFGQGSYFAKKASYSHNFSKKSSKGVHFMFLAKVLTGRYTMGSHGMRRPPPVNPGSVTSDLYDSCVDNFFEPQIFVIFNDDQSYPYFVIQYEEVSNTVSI

With `N#Cc1ccc(N2CCN(C(=O)C[C@H]3CC[C@H]([C@@H]4CCCN4c4cn[nH]c(=O)c4C(F)(F)F)O3)CC2)nc1` [Example 141D, 6-(4-[2-[(2R,5R)-5-[(2S)-1-[6-oxo-5-(trifluoromethyl)-1,6-dihydropyridazin-4-yl]pyrrolidin-2-yl]oxolan-2-yl]acetyl]piperazin-1-yl)pyridine-3-carbonitrile], the concentration for half-maximal inhibition (IC50) was 100 to 1000 nM. Consider `CC(=O)N1CCC[C@@H]2CN(c3cn[nH]c(=O)c3C(F)(F)F)C[C@@H]21` [Example 142, 5-[(4aR,7aR)-1-acetyl-octahydro-1H-pyrrolo[3,4-b]pyridin-6-yl]-4-(trifluoromethyl)-2,3-dihydropyridazin-3-one], for which the concentration for half-maximal inhibition (IC50) was no less than 1000 nM. Molecule `CC(=O)N1CCC[C@H]2CN(c3cn[nH]c(=O)c3C(F)(F)F)C[C@H]21` [Example 143, 5-[(4aS,7aS)-1-acetyl-octahydro-1H-pyrrolo[3,4-b]pyridin-6-yl]-4-(trifluoromethyl)-2,3-dihydropyridazin-3-one] had an IC50 of no less than 1000 nM.

`N#Cc1ccc(N2CCN(C(=O)CNCC[C@@H]3c4ccccc4CN3c3cn[nH]c(=O)c3C(F)(F)F)CC2)nc1` [Example 144A, 6-[4-[2-([2-[(1R)-2-[6-oxo-5-(trifluoromethyl)-1,6-dihydropyridazin-4-yl]-2,3-dihydro-1H-isoindol-1-yl]ethyl]amino)acetyl]piperazin-1-yl]pyridine-3-carbonitrile] gave a concentration for half-maximal inhibition (IC50) of less than 100 nM. The molecule `N#Cc1ccc(N2CCN(C(=O)CNCC[C@H]3c4ccccc4CN3c3cn[nH]c(=O)c3C(F)(F)F)CC2)nc1` [Example 144B, 6-[4-[2-([2-[(1S)-2-[6-oxo-5-(trifluoromethyl)-1,6-dihydropyridazin-4-yl]-2,3-dihydro-1H-isoindol-1-yl]ethyl]amino)acetyl]piperazin-1-yl]pyridine-3-carbonitrile] returned an IC50 of 100 to 1000 nM. The value for `N#Cc1ccc(N2CCN(C(=O)C[C@@H](N)COC[C@@H]3CCCN3c3cn[nH]c(=O)c3C(F)(F)F)CC2)nc1` [Example 145A, 6-[4-[(3R)-3-amino-4-[[(2S)-1-[6-oxo-5-(trifluoromethyl)-1,6-dihydropyridazin-4-yl]pyrrolidin-2-yl]methoxy]butanoyl]piperazin-1-yl]pyridine-3-carbonitrile; formic acid] was less than 100 nM.

The molecule `N#Cc1ccc(N2CCN(C(=O)C[C@H](N)COC[C@@H]3CCCN3c3cn[nH]c(=O)c3C(F)(F)F)CC2)nc1` [Example 145B, 6-[4-[(3S)-3-amino-4-[[(2S)-1-[6-oxo-5-(trifluoromethyl)-1,6-dihydropyridazin-4-yl]pyrrolidin-2-yl]methoxy]butanoyl]piperazin-1-yl]pyridine-3-carbonitrile; formic acid] came in with a concentration for half-maximal inhibition (IC50) of less than 100 nM. As for `N#Cc1ccc(N2CCN(C(=O)CCNC[C@@H]3c4ccccc4CN3c3cn[nH]c(=O)c3C(F)(F)F)CC2)nc1` [Example 146A, 6-[4-[3-([[(1S)-2-[6-oxo-5-(trifluoromethyl)-1,6-dihydropyridazin-4-yl]-2,3-dihydro-1H-isoindol-1-yl]methyl]amino)propanoyl]piperazin-1-yl]pyridine-3-carbonitrile], the figure is less than 100 nM; as for `N#Cc1ccc(N2CCN(C(=O)CCNC[C@H]3c4ccccc4CN3c3cn[nH]c(=O)c3C(F)(F)F)CC2)nc1` [Example 146B, 6-[4-[3-([[(1R)-2-[6-oxo-5-(trifluoromethyl)-1,6-dihydropyridazin-4-yl]-2,3-dihydro-1H-isoindo1-1-yl]methyl]amino)propanoyl]piperazin-1-yl]pyridine-3-carbonitrile], less than 100 nM; as for `O=C(C[C@@H]1CC[C@@H]([C@@H]2CCCN2c2cn[nH]c(=O)c2C(F)(F)F)O1)N1CCN(c2ncc(Cl)cn2)CC1` [Example 147A, 5-[(2S)-2-[(2S,5S)-5-[2-[4-(5-chloropyrimidin-2-yl)piperazin-1-yl]-2-oxoethyl]oxolan-2-yl]pyrrolidin-1-yl]-4-(trifluoromethyl)-2,3-dihydropyridazin-3-one], less than 100 nM. The value for `O=C(C[C@H]1CC[C@@H]([C@@H]2CCCN2c2cn[nH]c(=O)c2C(F)(F)F)O1)N1CCN(c2ncc(Cl)cn2)CC1` [Example 147B, 5-[(2S)-2-[(2S,5R)-5-[2-[4-(5-chloropyrimidin-2-yl)piperazin-1-yl]-2-oxoethyl]oxolan-2-yl]pyrrolidin-1-yl]-4-(trifluoromethyl)-2,3-dihydropyridazin-3-one] was less than 100 nM; that for `O=C(C[C@H]1CC[C@H]([C@@H]2CCCN2c2cn[nH]c(=O)c2C(F)(F)F)O1)N1CCN(c2ncc(Cl)cn2)CC1` [Example 147D, 5-[(2S)-2-[(2R,5R)-5-[2-[4-(5-chloropyrimidin-2-yl)piperazin-1-yl]-2-oxoethyl]oxolan-2-yl]pyrrolidin-1-yl]-4-(trifluoromethyl)-2,3-dihydropyridazin-3-one] was less than 100 nM; that for `O=C(C[C@@H]1CC[C@@H]([C@@H]2CCCN2c2cn[nH]c(=O)c2C(F)(F)F)O1)N1CCN(c2ccc(Cl)cn2)CC1` [Example 148A, 5-[(2S)-2-[(2S,5S)-5-[2-[4-(5-chloropyridin-2-yl)piperazin-1-yl]-2-oxoethyl]oxolan-2-yl]pyrrolidin-1-yl]-4-(trifluoromethyl)-2,3-dihydropyridazin-3-one] was less than 100 nM. As for `O=C(C[C@@H]1CC[C@H]([C@@H]2CCCN2c2cn[nH]c(=O)c2C(F)(F)F)O1)N1CCN(c2ccc(Cl)cn2)CC1` [Example 148B, 5-[(2S)-2-[(2R,5S)-5-[2-[4-(5-chloropyridin-2-yl)piperazin-1-yl]-2-oxoethyl]oxolan-2-yl]pyrrolidin-1-yl]-4-(trifluoromethyl)-2,3-dihydropyridazin-3-one], the figure is 100 to 1000 nM; as for `O=C(C[C@H]1CC[C@H]([C@@H]2CCCN2c2cn[nH]c(=O)c2C(F)(F)F)O1)N1CCN(c2ccc(Cl)cn2)CC1` [Example 148C, 5-[(2S)-2-[(2R,5R)-5-[2-[4-(5-chloropyridin-2-yl)piperazin-1-yl]-2-oxoethyl]oxolan-2-yl]pyrrolidin-1-yl]-4-(trifluoromethyl)-2,3-dihydropyridazin-3-one], less than 100 nM.

Molecule `O=C(C[C@H]1CC[C@@H]([C@@H]2CCCN2c2cn[nH]c(=O)c2C(F)(F)F)O1)N1CCN(c2ccc(Cl)cn2)CC1` [Example 148D, 5-[(2S)-2-[(2S,5R)-5-[2-[4-(5-chloropyridin-2-yl)piperazin-1-yl]-2-oxoethyl]oxolan-2-yl]pyrrolidin-1-yl]-4-(trifluoromethyl)-2,3-dihydropyridazin-3-one] yielded an IC50 of less than 100 nM. As for `O=C(C[C@@H]1CC[C@@H]([C@@H]2CCCN2c2cn[nH]c(=O)c2C(F)(F)F)O1)N1CCN(c2ncc(C(F)(F)F)cn2)CC1` [Example 149A, 5-[(2S)-2-[(2S,5S)-5-(2-oxo-2-[4-[5-(trifluoromethyl)pyrimidin-2-yl]piperazin-1-yl]ethyl)oxolan-2-yl]pyrrolidin-1-yl]-4-(trifluoromethyl)-2,3-dihydropyridazin-3-one], the figure is less than 100 nM; as for `O=C(C[C@H]1CC[C@@H]([C@@H]2CCCN2c2cn[nH]c(=O)c2C(F)(F)F)O1)N1CCN(c2ncc(C(F)(F)F)cn2)CC1` [Example 149B, 5-[(2S)-2-[(2S,5R)-5-(2-oxo-2-[4-[5-(trifluoromethyl)pyrimidin-2-yl]piperazin-1-yl]ethyl)oxolan-2-yl]pyrrolidin-1-yl]-4-(trifluoromethyl)-2,3-dihydropyridazin-3-one], less than 100 nM. The value for `O=C(C[C@@H]1CC[C@H]([C@@H]2CCCN2c2cn[nH]c(=O)c2C(F)(F)F)O1)N1CCN(c2ncc(C(F)(F)F)cn2)CC1` [Example 149C, 5-[(2S)-2-[(2R,5S)-5-(2-oxo-2-[4-[5-(trifluoromethyl)pyrimidin-2-yl]piperazin-1-yl]ethyl)oxolan-2-yl]pyrrolidin-1-yl]-4-(trifluoromethyl)-2,3-dihydropyridazin-3-one] was less than 100 nM; that for `O=C(C[C@H]1CC[C@H]([C@@H]2CCCN2c2cn[nH]c(=O)c2C(F)(F)F)O1)N1CCN(c2ncc(C(F)(F)F)cn2)CC1` [Example 149D, 5-[(2S)-2-[(2R,5R)-5-(2-oxo-2-[4-[5-(trifluoromethyl)pyrimidin-2-yl]piperazin-1-yl]ethyl)oxolan-2-yl]pyrrolidin-1-yl]-4-(trifluoromethyl)-2,3-dihydropyridazin-3-one] was less than 100 nM. On to `O=c1[nH]ncc(N2Cc3ccc(OC4CCNCC4)cc3C2)c1C(F)(F)F` [Example 150, 5-[5-(Piperidin-4-yloxy)-2,3-dihydro-1H-isoindol-2-yl]-4-(trifluoromethyl)-2,3-dihydropyridazin-3-one], for which the IC50 is less than 100 nM. As for `O=c1[nH]ncc(N2Cc3ccccc3C2)c1Cl` [Example 151, 4-Chloro-5-(isoindolin-2-yl)pyridazin-3(2H)-one], the figure is 100 to 1000 nM. With `O=c1[nH]ncc(N2Cc3ccncc3C2)c1Cl` [Example 152, 4-Chloro-5-(1,3-dihydro-2H-pyrrolo[3,4-c]pyridin-2-yl)pyridazin-3(2H)-one], the half-maximal inhibitory concentration (IC50) was 100 to 1000 nM.

On to `COc1cccc2c1CN(c1cn[nH]c(=O)c1Cl)C2` [Example 153, 4-Chloro-5-(4-methoxyisoindolin-2-yl)pyridazin-3(2H)-one], for which the half-inhibitory concentration (IC50) is 100 to 1000 nM. The value for `O=c1[nH]ncc(N2Cc3cccnc3C2)c1Cl` [Example 154, 4-Chloro-5-(5,7-dihydro-6H-pyrrolo[3,4-b]pyridin-6-yl)pyridazin-3(2H)-one] was 100 to 1000 nM. The value for `COc1ccc2c(c1)CN(c1cn[nH]c(=O)c1Cl)C2` [Example 155, 4-Chloro-5-(5-methoxyisoindolin-2-yl)pyridazin-3(2H)-one] was 100 to 1000 nM. As for `COCCOc1ccc2c(c1)CN(c1cn[nH]c(=O)c1Cl)C2` [Example 156, 4-Chloro-5-(5-(2-methoxyethoxy)isoindolin-2-yl)pyridazin-3(2H)-one], the concentration for half-maximal inhibition (IC50) was 100 to 1000 nM. In turn, `O=c1[nH]ncc(N2Cc3ccc(OCCO)cc3C2)c1Cl` [Example 157, 4-Chloro-5-(5-(2-hydroxyethoxy)isoindolin-2-yl)pyridazin-3(2H)-one] gave an IC50 of 100 to 1000 nM.

The values are drawn from US10550105B2 (Ribon Therapeutics Inc., priority 2018, dated 2020).
